{
  "source": "patent US11896603B2",
  "about": "“Oligosaccharide as therapeutic agent for alcohol associated liver disease” (The Regents of the University of California, priority 2020, dated 2024)",
  "key": {"[1]": {"tested_on": "E. faecalis", "test": "Fecal E. faecalis and cytolysin by qPCR in chronic-binge ethanol diet-fed mice", "format": "in vivo, mouse", "settings": "Fut2^−/− mice", "description": "In the 2′-fucosyllactose (2′-FL; a gift from Jennewein Biotechnologie GmbH, Germany) supplementation experiments we used a chronic-binge ethanol diet (NIAAA model). Fut2^−/− mice (10-11 weeks, male and female) were fed with Lieber-DeCarli diet with caloric intake from ethanol 0% on days 1-5 and 36% of total calories from day 6 to day 16. At day 16 in the early morning, mice were gavaged with a single dose of ethanol (5 g/kg body weight) and harvested 9 hours later. In the 2′-FL treated groups 2′-FL was added in the ethanol diet at a final concentration of 2 mg/mL and given continuously during the study period.\nReverse transcription and real-time quantitative PCR. For reverse transcription qPCR, RNA was extracted from mouse liver, and cDNAs were generated as described. DNA from mouse feces was extracted using QIAamp Fast DNA Stool kit (Qiagen, 51604). Quantitative PCR was performed with iTaq universal SYBR Green Supermix (Bio-Rad, 1725124) using a StepOnePlus thermocycler real-time PCR system. Primer sequences for mouse genes were obtained from the NIH qPrimerDepot. The values of mouse genes were normalized to 18S, while bacterial genes were normalized to 16S."}, "[2]": {"tested_on": "cytolysin positive strain of E. faecalis", "test": "Enterococcus faecalis cultures, growth by optical density at 600 nm", "format": "cell-based", "settings": "BHI media with 0, 0.25, 0.5, 1, 2 or 20 mg/mL of 2′-FL, 6 h, sampling every 30 min (FIG. 5G)", "description": "Enterococcus faecalis cultures. A cytolysin positive strain of E. faecalis, which was isolated from feces of an ethanol-fed Atp4a^s1/s1 mouse, was cultured in BHI media with 0, 0.25, 0.5, 1, 2 or 20 mg/mL of 2′-FL in triplicate for each concentration. Sampling was taken at 30 min intervals during the course of 6 h. Cell growth was determined by measuring the optical density at 600 nm for each time-point."}, "[3]": {"tested_on": "Fut2^−/− mice", "test": "2′-FL supplementation in chronic-binge ethanol diet (NIAAA model), ethanol-induced liver disease", "format": "in vivo, mouse", "description": "In the 2′-fucosyllactose (2′-FL; a gift from Jennewein Biotechnologie GmbH, Germany) supplementation experiments we used a chronic-binge ethanol diet (NIAAA model). Fut2^−/− mice (10-11 weeks, male and female) were fed with Lieber-DeCarli diet with caloric intake from ethanol 0% on days 1-5 and 36% of total calories from day 6 to day 16. At day 16 in the early morning, mice were gavaged with a single dose of ethanol (5 g/kg body weight) and harvested 9 hours later. In the 2′-FL treated groups 2′-FL was added in the ethanol diet at a final concentration of 2 mg/mL and given continuously during the study period. Formalin-fixed and paraffin-embedded mouse livers were stained with hematoxylin-eosin (Leica Biosystems Inc.) using standard staining protocols. Frozen liver sections were stained with Oil Red O (Sigma-Aldrich, 00625). Biochemical assays. Levels of plasma alanine aminotransferase (ALT) were measured using infinity ALT kit (Thermo Scientific, TR71121). Triglyceride levels were measured using the Triglyceride Liquid Reagents Kit (Pointe Scientific, 51604). Reverse transcription and real-time quantitative PCR. For reverse transcription qPCR, RNA was extracted from mouse liver, and cDNAs were generated as described. DNA from mouse feces was extracted using QIAamp Fast DNA Stool kit (Qiagen, 51604). Quantitative PCR was performed with iTaq universal SYBR Green Supermix (Bio-Rad, 1725124) using a StepOnePlus thermocycler real-time PCR system. Primer sequences for mouse genes were obtained from the NIH qPrimerDepot. The values of mouse genes were normalized to 18S, while bacterial genes were normalized to 16S."}},
  "data": [
    {"smiles": "CC1O[C@@H](OC2[C@H](O[C@@H]3C(CO)OC(O)C(O)[C@H]3O)OC(CO)[C@H](O)[C@@H]2O)[C@@H](O)C(O)[C@@H]1O", "note": "(stereo partly shown) [2′-FL, 2′-fucosyllactose]", "values": [
      {"measurement": "Intestinal amount of E. faecalis (fecal E. faecalis, qPCR)", "setting": "[1]; chronic-binge ethanol diet with or without 2′-FL for 2 weeks (FIG. 5E)", "value": "decreased"},
      {"measurement": "Fecal cytolysin (qPCR)", "setting": "[1]; chronic-binge ethanol diet with or without 2′-FL for 2 weeks (FIG. 5F)", "value": "decreased"},
      {"measurement": "E. faecalis growth (OD600)", "setting": "[2]", "value": "not affected"},
      {"measurement": "Metabolism of ethanol (plasma ethanol, hepatic Adh1 mRNA, hepatic Cyp2e1 mRNA)", "setting": "[3]; 2′-FL 2 mg/mL in diet for 2 weeks (FIG. 4G-4I)", "value": "without affecting"},
      {"measurement": "Plasma alanine aminotransferase (ALT)", "setting": "[3]; 2′-FL 2 mg/mL in diet for 2 weeks, compared with ethanol diet alone (FIG. 4A)", "value": "lower"},
      {"measurement": "Hepatic triglyceride", "setting": "[3]; 2′-FL 2 mg/mL in diet for 2 weeks, compared with ethanol diet alone (FIG. 4B)", "value": "lower"},
      {"measurement": "Liver histopathology (H&E-stained liver tissue)", "setting": "[3]; 2′-FL 2 mg/mL in diet for 2 weeks, compared with ethanol diet alone (FIG. 4C)", "value": "improvement"},
      {"measurement": "Hepatic Cxcl1 mRNA level", "setting": "[3]; 2′-FL 2 mg/mL in diet for 2 weeks, compared with ethanol diet alone (FIG. 4D)", "value": "decreased"},
      {"measurement": "Hepatic Cxcl2 mRNA level", "setting": "[3]; 2′-FL 2 mg/mL in diet for 2 weeks, compared with ethanol diet alone (FIG. 4E)", "value": "decreased"},
      {"measurement": "Oil Red O staining of liver tissue", "setting": "[3]; 2′-FL 2 mg/mL in diet for 2 weeks, compared with ethanol diet alone (FIG. 4F)", "value": "improvement"}
    ]}
  ]
}
